Results reported in patent publication US12331041B2, “GLP-1 receptor agonists and uses thereof” (Pfizer Inc., priority 2018, dated 2025).
Counter-ions that a name gives are not always drawn.

Key:
[1] = biological target: T1, human GLP-1R (Homo sapiens, UniProt P43220, G168S); assay: CHO GLP-1R Clone H6 - Assay 1 (HTRF cAMP agonist assay); type: cell-based; conditions: for EC50: CHO Clone H6, high GLP-1R density, cAMP, geometric mean; for Emax: CHO Clone H6, relative to saturating full agonist GLP-1 7-36 (1 μM), arithmetic mean
T1 construct: expressed in transfected cells
Summary of the method: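 CHO Clone H6 cells stably expressing human GLP-1R (G168S) were plated 48 h, then given compound for 30 min at 37° C in HBSS/0.1% BSA/HEPES with 100 μM IBMX and 1% DMSO. cAMP was measured by HTRF against a standard curve.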

[2] = biological target: T2, human GLP-1R (Homo sapiens, UniProt P43220, L260F); assay: CHO GLP-1R Clone C6 - Assay 2 (HTRF cAMP agonist assay); type: cell-based; conditions: for EC50: CHO clone C6, low GLP-1R density, cAMP, geometric mean; for Emax: CHO clone C6, relative to saturating full agonist GLP-1 (1 μM), arithmetic mean
T2 construct: expressed in transfected cells; host or cells: CHO Flp-In T-REx, clonal line C6 (pcDNA5-FRT-TO)
T2 sequence (P43220 24-463 L260F): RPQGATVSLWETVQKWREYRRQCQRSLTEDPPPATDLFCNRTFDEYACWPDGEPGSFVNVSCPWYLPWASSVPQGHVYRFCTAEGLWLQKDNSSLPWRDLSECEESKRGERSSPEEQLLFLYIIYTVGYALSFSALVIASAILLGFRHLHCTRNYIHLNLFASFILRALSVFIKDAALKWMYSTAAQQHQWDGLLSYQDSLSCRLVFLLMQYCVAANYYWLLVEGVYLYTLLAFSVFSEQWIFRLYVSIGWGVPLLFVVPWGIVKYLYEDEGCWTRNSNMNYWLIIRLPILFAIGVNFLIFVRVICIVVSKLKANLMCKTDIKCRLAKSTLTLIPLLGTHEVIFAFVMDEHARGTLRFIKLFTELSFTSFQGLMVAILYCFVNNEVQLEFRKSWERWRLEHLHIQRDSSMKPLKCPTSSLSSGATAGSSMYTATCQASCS

T1 sequence (P43220 24-463 G168S): as the sequence (P43220 24-463 L260F) above, with G145S, F237L counted along it

EC50 [1] [nM] | Emax [1] [%] | EC50 [2] [nM] | Emax [2] [%] | Structure (SMILES)
6 | 86 | 150 | 91 | CCn1nncc1Cn1c(CN2CCC(c3cccnc3OCc3ccc(C#N)cc3F)CC2)nc2ccc(C(=O)O)cc21 [Example 17, 2-[(4-{2-[(4-cyano-2-fluorobenzyl)oxy]pyridin-3-yl}piperidin-1-yl)methyl]-1-[(1-ethyl-1H-1,2,3-triazol-5-yl)methyl]-1H-benzimidazole-6-carboxylic acid, trifluoroacetate salt]
5.3 | 90 | 42 | 94 | O=C(O)c1ccc2nc(CN3CCC(c4nccnc4OCc4ccc(Cl)cc4F)CC3)n(C[C@@H]3CCO3)c2c1 [Example 19, Ammonium 2-[(4-{3-[(4-chloro-2-fluorobenzyl)oxy]pyrazin-2-yl}piperidin-1-yl)methyl]-1-[(2S)-oxetan-2-ylmethyl]-1H-benzimidazole-6-carboxylate]
0.34 | 80 | 6.1 | 91 | CCn1cncc1Cn1c(CN2CCC(c3nccnc3OCc3ccc(Cl)cc3F)CC2)nc2ccc(C(=O)O)cc21 [Example 20, 2-[(4-{3-[(4-chloro-2-fluorobenzyl)oxy]pyrazin-2-yl}piperidin-1-yl)methyl]-1-[(1-ethyl-1H-imidazol-5-yl)methyl]-1H-benzimidazole-6-carboxylic acid, trifluoroacetate salt]
14 | 73 | 370 | 91 | O=C(O)c1ccc2nc(CN3CCC(c4nccnc4OCc4ccc(Cl)cc4F)CC3)n(Cc3cocn3)c2c1 [Example 21, 2-[(4-{3-[(4-chloro-2-fluorobenzyl)oxy]pyrazin-2-yl}piperidin-1-yl)methyl]-1-(1,3-oxazol-4-ylmethyl)-1H-benzimidazole-6-carboxylic acid, trifluoroacetate salt]
2.8 | 85 | 23 | 82 | O=C(O)c1ccc2nc(CN3CCC(c4nccnc4OCc4ccc(Cl)cc4F)CC3)n(Cc3ncco3)c2c1 [Example 22, 2-[(4-{3-[(4-chloro-2-fluorobenzyl)oxy]pyrazin-2-yl}piperidin-1-yl)methyl]-1-(1,3-oxazol-2-ylmethyl)-1H-benzimidazole-6-carboxylic acid, trifluoroacetate salt]
41 | 89 | 450 | 94 | COCCn1c(CN2CCC(c3nccnc3OCc3ccc(Cl)cc3F)CC2)nc2ccc(C(=O)O)cc21 [Example 23, 2-[(4-{3-[(4-chloro-2-fluorobenzyl)oxy]pyrazin-2-yl}piperidin-1-yl)methyl]-1-(2-methoxyethyl)-1H-benzimidazole-6-carboxylic acid, hydrochloride salt]
2 | 76 | 33 | 89 | O=C(O)c1ccc2nc(CN3CCC(c4nccnc4OCc4ccc(Cl)cc4F)CC3)n(Cc3cnco3)c2c1 [Example 24, 2-[(4-{3-[(4-chloro-2-fluorobenzyl)oxy]pyrazin-2-yl}piperidin-1-yl)methyl]-1-(1,3-oxazol-5-ylmethyl)-1H-benzimidazole-6-carboxylic acid, trifluoroacetate salt]
6.3 | 80 | 73 | 91 | N#Cc1ccc(COc2nccnc2C2CCN(Cc3nc4ccc(C(=O)O)cc4n3Cc3ncco3)CC2)c(F)c1 [Example 25, 2-[(4-{3-[(4-cyano-2-fluorobenzyl)oxy]pyrazin-2-yl}piperidin-1-yl)methyl]-1-(1,3-oxazol-2-ylmethyl)-1H-benzimidazole-6-carboxylic acid, trifluoroacetate salt]
5.1 | 86 | 38 | 86 | Cn1cncc1Cn1c(CN2CCC(c3nccnc3OCc3ccc(Cl)cc3F)CC2)nc2ccc(C(=O)O)cc21 [Example 26, 2-[(4-{3-[(4-chloro-2-fluorobenzyl)oxy]pyrazin-2-yl}piperidin-1-yl)methyl]-1-[(1-methyl-1H-imidazol-5-yl)methyl]-1H-benzimidazole-6-carboxylic acid, trifluoroacetate salt]
0.84 | 86 | 16 | 85 | CCn1cncc1Cn1c(CN2CCC(c3nccnc3OCc3ccc(C#N)cc3F)CC2)nc2ccc(C(=O)O)cc21 [Example 27, 2-[(4-{3-[(4-cyano-2-fluorobenzyl)oxy]pyrazin-2-yl}piperidin-l-yl)methyl]-1-[(1-ethyl-1H-imidazol-5-yl)methyl]-1H-benzimidazole-6-carboxylic acid, trifluoroacetate salt]
140 | 79 | 2800 | 110 | Cn1c(CN2CCC(c3nccnc3OCc3ccc(Cl)cc3F)CC2)nc2ncc(C(=O)O)cc21 [Example 30, 2-[(4-{3-[(4-chloro-2-fluorobenzyl)oxy]pyrazin-2-yl}piperidin-1-yl)methyl]-1-methyl-1H-imidazo[4,5-b]pyridine-6-carboxylic acid, hydrochloride salt]
3.1 | 93 | 84 | 110 | O=C(O)c1ccc2nc(CN3CCN(c4cccnc4OCc4ccc(Cl)cc4F)CC3)n(C[C@@H]3CCO3)c2c1 [Example 33, Ammonium 2-[(4-{2-[(4-chloro-2-fluorobenzyl)oxy]pyridin-3-yl}piperazin-1-yl)methyl]-1-[(2S)-oxetan-2-ylmethyl]-1H-benzimidazole-6-carboxylate]
9.3 | 88 | 190 | 92 | Cn1cncc1Cn1c(C2CC23CCN(c2cccc(OCc4ccc(C#N)cc4F)n2)CC3)nc2ccc(C(=O)O)cc21 (stereo not drawn) [Example 37, 2-(6-{6-[(4-cyano-2-fluorobenzyl)oxy]pyridin-2-yl}-6-azaspiro[2.5]oct-1-yl)-1-[(1-methyl-1H-imidazol-5-yl)methyl]-1H-benzimidazole-6-carboxylic acid, trifluoroacetate salt]
1.6 | 90 | 29 | 95 | CCn1cncc1Cn1c(C2CC23CCN(c2nc(OCc4ccc(Cl)cc4F)ncc2F)CC3)nc2ccc(C(=O)O)cc21 (stereo not drawn) [Example 39, 2-(6-{2-[(4-chloro-2-fluorobenzyl)oxy]-5-fluoropyrimidin-4-yl}-6-azaspiro[2.5]oct-1-yl)-1-[(1-ethyl-1H-imidazol-5-yl)methyl]-1H-benzimidazole-6-carboxylic acid, trifluoroacetate salt, from P7]
150 | 77 | 2000 | 100 | Cn1c(C2CC23CCN(c2nc(OCc4ccc(Cl)cc4F)ncc2F)CC3)nc2ccc(C(=O)O)nc21 (stereo not drawn) [Example 40, 2-(6-{2-[(4-chloro-2-fluorobenzyl)oxy]-5-fluoropyrimidin-4-yl}-6-azaspiro[2.5]oct-1-yl)-3-methyl-3H-imidazo[4,5-b]pyridine-5-carboxylic acid, trifluoroacetate salt, from P7]
